From patent US20080214563A1, “Benzimidazole Thiophene Compounds As Plk Modulators” (priority 2005, published 2008)

Assays:
Format in all cases: cell-based
Hela = experiment: Cell-Titer Glo Cell Growth Inhibition Assay, Hela; conditions: Homo sapiens, CellTiter-Glo, 72 h, read-out: CTG Hela IC50
Procedure: (§1) A549-L (human lung), BT474 (human breast), Colo 205 (human colon), H1299 (human lung), Hela (human cervix), HCT-116 (human colon), HN5 (human head and neck), HT29 (human colon), LNCap (human prostate), MCF7 (human breast), MDA-MB468 (human breast), MX-1 (human breast), RPMI 8226 (human peripheral blood), SKOV3 (human ovary) and P388 (murine leukemia) cell lines were cultured in RPMI1640 containing 10% fetal bovine serum at 37° C. in a 5% CO2 incubator. Cell lines were split into T75 flasks (Falcon #353136) two to three days prior to assay set up at density which yields approximately 70-80% confluency at time of harvest for assay. Cells were harvested using 0.25% trypsin with EDTA (Glibco/Invitrogen #25200-056), Cell counts were performed on cell suspensions using Trypan Blue exclusion staining, cells were then plated in 105 uL of culture media per well at the following densities in 96 well Costar #3916 black flat bottom plates: All human cell lines were plated at 500 cells/well. P388 were plated at 250 cells/well. All plates were placed at 5% CO2 37° C. overnight and then test compounds were added the following day. One plate of each cell type is treated with CellTiter-Glo (Promega #G7573) for a day 0 proliferation measurement and read as described below. […]

BT474 = experiment: Cell-Titer Glo Cell Growth Inhibition Assay, BT474; conditions: Homo sapiens; CellTiter-Glo, 72 h, BT 474; read-out: CTG BT 474 IC50
Procedure: as §1

HN5 = experiment: Cell-Titer Glo Cell Growth Inhibition Assay, HN5; conditions: Homo sapiens, CellTiter-Glo, 72 h, read-out: CTG HN5 IC50
Procedure: as §1

LNCap = experiment: Cell-Titer Glo Cell Growth Inhibition Assay, LNCap; conditions: Homo sapiens, CellTiter-Glo, 72 h, read-out: CTG LNCap IC50
Procedure: as §1

MDA-MB468 = experiment: Cell-Titer Glo Cell Growth Inhibition Assay, MDA-MB468; conditions: Homo sapiens, MDA-MB-468, CellTiter-Glo, 72 h, read-out: CTG MDA-MB468 IC50
Procedure: as §1

MCF7 = experiment: Cell-Titer Glo Cell Growth Inhibition Assay, MCF7; conditions: Homo sapiens, CellTiter-Glo, 72 h, read-out: CTG MCF7 IC50
Procedure: as §1

RPMI 8226 = experiment: Cell-Titer Glo Cell Growth Inhibition Assay, RPMI 8226; conditions: Homo sapiens, CellTiter-Glo, 72 h, read-out: CTG RPMI 8226 IC50
Procedure: as §1

H1299 = experiment: Cell-Titer Glo Cell Growth Inhibition Assay, H1299; conditions: Homo sapiens, NCI-H1299, CellTiter-Glo, 72 h, read-out: CTG H1299 IC50
Procedure: as §1

Measured: IC50

C[C@@H](Oc1cc(-n2cnc3cc(-c4cnn(C)c4)ccc32)sc1C(N)=O)c1ccccc1Cl [Example 9, 3-{[(1R)-1-(2-Chlorophenyl)ethyl]oxy}-5-[5-(1-methyl-1H-pyrazol-4-yl)-1H-benzimidazol-1-yl]-2-thiophenecarboxamide]
< 100 nM: all assays above
